How the values were obtained:
Experiment in all cases: relative viability (nuclei count vs DMSO), 5 days (fraction); higher = more cells survive
CX-5461 + Decitabine = compound: Cc1cnc(CNC(=O)c2c(=O)c3ccc(N4CCCN(C)CC4)nc3n3c2sc2ccccc23)cn1 [CX-5461] + Nc1ncn([C@H]2C[C@H](O)[C@@H](CO)O2)c(=O)n1 [Decitabine] (partner 2 µM)
Summary of the method: (§1)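 Cells from lung cancer lines were seeded into 1536-well plates and, one day later, dosed by pin tool. Treatments were either a single drug or a fixed dose of an anchor drug with five library-drug doses (not always all listed) in √10 steps. After 5 days, nuclei were stained in a one-step fixation (final 0.05% Triton X-100, 1% formaldehyde, 1 ug/ml Hoechst) and counted on 4× images, and relative viability is the treated-to-vehicle nuclei ratio, as the median of duplicate plates.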

CX-5461 + Trametinib = compound: Cc1cnc(CNC(=O)c2c(=O)c3ccc(N4CCCN(C)CC4)nc3n3c2sc2ccccc23)cn1 [CX-5461] + CC(=O)Nc1cccc(-n2c(=O)n(C3CC3)c(=O)c3c(Nc4ccc(I)cc4F)n(C)c(=O)c(C)c32)c1 [Trametinib] (partner 0.02 µM)
Summary of the method: as §1

CX-5461 + Phenformin = compound: Cc1cnc(CNC(=O)c2c(=O)c3ccc(N4CCCN(C)CC4)nc3n3c2sc2ccccc23)cn1 [CX-5461] + N=C(N)NC(=N)NCCc1ccccc1 [Phenformin] (partner 250 µM)
Summary of the method: as §1

IMD-0354 + Navitoclax = compound: O=C(Nc1cc(C(F)(F)F)cc(C(F)(F)F)c1)c1cc(Cl)ccc1O [IMD-0354] + CC1(C)CCC(c2ccc(Cl)cc2)=C(CN2CCN(c3ccc(C(=O)NS(=O)(=O)c4ccc(N[C@H](CCN5CCOCC5)CSc5ccccc5)c(S(=O)(=O)C(F)(F)F)c4)cc3)CC2)C1 [Navitoclax] (partner 0.5 µM)
Summary of the method: as §1

| Cell Line | relative viability (CX-5461 + Decitabine; first compound 0.01 µM) | relative viability (CX-5461 + Decitabine; first compound 0.03162 µM) | relative viability (CX-5461 + Decitabine; first compound 0.3162 µM) | relative viability (CX-5461 + Decitabine; first compound 1 µM) | relative viability (CX-5461 + Trametinib; first compound 0.01 µM) | relative viability (CX-5461 + Trametinib; first compound 0.03162 µM) | relative viability (CX-5461 + Trametinib; first compound 0.3162 µM) | relative viability (CX-5461 + Trametinib; first compound 1 µM) | relative viability (CX-5461 + Phenformin; first compound 0.01 µM) | relative viability (CX-5461 + Phenformin; first compound 0.03162 µM) | relative viability (CX-5461 + Phenformin; first compound 0.1 µM) | relative viability (CX-5461 + Phenformin; first compound 0.3162 µM) | relative viability (CX-5461 + Phenformin; first compound 1 µM) | relative viability (IMD-0354 + Navitoclax; first compound 0.04 µM) | relative viability (IMD-0354 + Navitoclax; first compound 0.1265 µM) | relative viability (IMD-0354 + Navitoclax; first compound 0.4 µM) | relative viability (IMD-0354 + Navitoclax; first compound 1.265 µM) | relative viability (IMD-0354 + Navitoclax; first compound 4 µM) | relative viability (CX-5461 + Decitabine; first compound 0.1 µM) | relative viability (CX-5461 + Trametinib; first compound 0.1 µM) |
| --- | --- | --- | --- | --- | --- | --- | --- | --- | --- | --- | --- | --- | --- | --- | --- | --- | --- | --- | --- | --- |
| NCI-H2023 | 0.223 | 0.178 | 0.178 | 0.0728 | 0.54 | 0.564 | 0.491 | 0.115 | 0.374 | 0.335 | 0.194 | 0.294 | 0.0701 | 1.16 | 1.05 | 0.561 | 0.257 | 0.121 |  |  |
| NCI-H23 | 0.371 | 0.344 | 0.299 | 0.268 | 0.421 | 0.372 | 0.442 | 0.285 | 0.769 | 0.875 | 0.834 | 0.803 | 0.406 | 0.893 | 0.814 | 0.54 | 0.394 | 0.207 | 0.363 | 0.407 |
| NCI-H2170 | 0.471 | 0.454 | 0.504 | 0.446 | 0.987 | 0.976 | 0.952 | 0.862 | 0.44 | 0.418 | 0.407 | 0.363 | 0.322 | 0.608 | 0.585 | 0.562 | 0.644 | 0.274 | 0.493 | 0.971 |
| NCI-H1944 | 0.478 | 0.443 | 0.371 | 0.44 | 0.47 | 0.406 | 0.314 | 0.448 | 0.228 | 0.193 | 0.181 | 0.159 | 0.122 | 0.962 | 1.13 |  | 1.01 | 0.125 | 0.429 | 0.419 |
| NCI-H520 | 0.529 | 0.52 | 0.465 | 0.362 | 0.754 | 0.642 | 0.327 | 0.352 | 0.577 | 0.503 | 0.717 | 0.303 | 0.36 | 1.25 | 0.928 | 0.473 | 0.159 | 0.254 | 0.483 | 0.734 |
| NCI-H460 | 0.551 | 0.429 | 0.391 | 0.0313 | 0.21 | 0.142 | 0.0956 | 0.0222 | 0.545 | 0.483 |  | 0.483 | 0.0194 | 1.21 | 0.977 | 0.0491 | 0.0709 | 0.0241 | 0.228 | 0.0583 |
| EKVX | 0.286 | 0.418 |  | 0.39 | 0.389 | 0.306 |  | 0.265 | 0.231 | 0.236 | 0.186 | 0.224 | 0.24 | 0.967 | 1.11 |  | 0.573 | 0.206 | 0.395 | 0.482 |
| SK-MES-1 | 0.379 | 0.398 | 0.394 | 0.212 | 0.641 | 0.595 | 0.533 | 0.44 | 0.662 | 0.645 | 0.452 | 0.625 | 0.313 | 1.48 | 1.12 | 0.649 | 0.441 | 0.314 | 0.413 | 0.562 |
| EPLC-272H | 0.358 | 0.425 |  | 0.297 | 0.27 | 0.308 |  | 0.318 | 0.278 | 0.299 | 0.264 |  | 0.361 | 1.45 | 1 | 0.54 | 1.06 | 0.25 | 0.396 | 0.268 |
| NCI-H1793 | 0.504 | 0.446 | 0.379 | 0.581 | 0.386 | 0.519 | 0.411 | 0.353 | 0.388 | 0.392 | 0.433 |  | 0.289 | 0.356 | 0.472 | 0.391 | 0.282 | 0.246 | 0.535 | 0.364 |
| NCI-H2126 | 0.573 | 0.559 | 0.64 | 0.567 | 0.591 | 0.628 | 0.557 | 0.526 | 0.576 | 0.542 | 0.513 | 0.589 | 0.407 | 0.905 | 0.817 | 0.673 | 0.79 | 0.269 | 0.618 | 0.591 |
| LXF-289 | 0.412 | 0.377 |  | 0.351 | 0.757 | 0.647 |  | 0.677 | 0.523 | 0.526 | 0.521 | 0.255 | 0.276 | 0.927 | 0.88 | 0.789 | 0.666 | 0.0776 | 0.404 | 0.751 |
| NCI-H2009 | 0.41 | 0.374 | 0.37 | 0.308 | 0.341 | 0.271 | 0.301 | 0.243 | 0.501 | 0.441 | 0.24 | 0.472 | 0.282 | 1.22 | 1.02 | 0.915 | 0.642 | 0.115 | 0.335 | 0.286 |
| NCI-H2405 | 0.829 | 0.779 | 0.64 | 0.608 | 0.652 | 0.594 | 0.575 | 0.649 | 0.411 | 0.363 | 0.415 | 0.326 | 0.342 | 1.08 | 0.952 | 0.612 | 0.174 | 0.113 | 0.773 | 0.724 |
| NCI-H1755 | 0.782 | 0.763 | 0.687 | 0.69 | 0.826 | 0.796 | 0.719 | 0.753 | 0.603 | 0.637 | 0.615 | 0.56 | 0.493 | 1.1 | 1.05 | 0.591 | 0.481 | 0.16 | 0.66 | 0.836 |
| HCC-78 | 0.678 | 0.678 | 0.694 | 0.565 | 0.76 | 0.82 | 0.753 | 0.71 | 0.729 | 0.66 | 0.764 | 0.783 | 0.55 | 0.691 | 0.761 | 0.509 | 0.571 | 0.24 | 0.595 | 0.88 |

Source: the supplement of paper PMC10307832
